Results published in patent US20040132188A1, “Use of non-complexing peptides for the preparation of a composition for transfection of a polynucleotide into a cell and compositions useful in gene therapy” (priority 2001, published 2004).
Entries after “also recorded” stand apart in the source; their conditions may differ. Square brackets hold non-standard residues; d marks the D form. Ends that are not written are not given here.

Experiments:
[1] = Liposome leakage assay, POPC/cholesterol 3:2 liposomes; type: biochemical; conditions: for liposome leakage activity / calcein release: POPC/chol liposomes, pH 7
Description: FIG. 9: Liposome leakage assay. […] Emitted fluorescence was plotted against peptide concentration. […] C) Comparison of ppTG1, ppTG20 and ppTG21 at pH 7.
Leakage activity was plotted against peptide concentration.

HeLa cells = assay: Transfection in vitro, luciferase plasmid pTG11236; type: cell-based; conditions: for transfection / gene transfer efficiency in vitro: 50 ng pTG11236, increasing amounts of peptide, day 1
Experimental: Cells were plated on 24 well plates at a density of 4×10^4 (293-EBNA ) or 7×10^4 (HeLa, Renca) cells/well in DMEM supplemented with 10% FCS. The next day, the medium was replaced by 200 μl serum-free DMEM and plasmid (PTG11056 or pTG11236)/peptide complexes or plasmid/peptide/lipid complexes were prepared in 30 μl 0.9% NaCl or 5% glucose. After 20 min at room temperature these complexes were added to the cells which were then incubated for 2-3 h at 37° C. and 5% CO2 before 1 ml serum-containing DMEM was added. Approximately 20 hours later, cells were lysed by addition of 100 μl 1× Promega lysis buffer, 20 μl of the lysates were analysed for luciferase activity. Proteins were quantified with the bicinchonic acid (BCA) colorimetric method (Smith, Anal. Biochem. 150 (1985), 76-85). […]
HeLa cells were seeded at a density of 6×10^4 cells on 24 well plates. The next day, cells were incubated with 200 μl serum-free medium, 30 μl of plasmid (50 ng)/peptide/lipid mixtures were added and incubated for 3 h at 37° C. in 5% CO2. 1 ml of DMEM+10% FCS was then added. The next day, the medium was removed and cells were washed with 500 μl of PBS and subsequently treated with 100 μl of Promega lysis buffer. Plates were stored at −80° C. until luciferase activity was measured of 20 μl of the cell lysate. The protein assay was performed using the Pierce BCA kit.
JTS1 was dissolved to 1 mg/ml in 1 mM NaOH and mixed with DNA diluted in 5% glucose. ppTG1 was then added to this solution. The pcTG90/DOPE ppTG1 mixtures were prepared as described in Example 6. Transfection assays were performed on HeLa cells with 50 ng of plasmid as described in Example 6.
The series of ppTG1 derivatives listed in Material and Methods were tested for their gene transfer efficiencies in Hela cells. 6×10^4 cells were transfected with 50 ng pTG11236 complexed with increasing amounts of peptide. Luciferase activity was analyzed day 1 after transfection. The results are shown in FIG. 10B (ppTG20, ppTG21), FIG. 10C (ppTG25, ppTG26, ppTG27), FIG. 10D (ppTG28 to ppTG33), FIG. 10E (PEG-ppTG1 and PEG-ppTG20), FIG. 10F (ppTG22 to ppTG24) and FIG. 10G (ppTG20-D).

B6SJL mice, lungs = assay: In vivo gene transfer after intravenous injection, luciferase activity in the lungs; conditions: pTG11236/peptide complexes intravenously injected; for gene transfer efficiency in the lung: luciferase day 1
Experimental: Mice were sacrificed at day 1.
Lungs were tested for luciferase activity.

plasmid pTG11236 = assay: Gel retardation assay (DNA binding activity)
Experimental: 3 μg of the plasmid pTG11236 were incubated with increasing amounts of the respective peptide in a final volume of 30 μl with 0.9% NaCl. After 20 min of incubation at room temperature, 6 μl 5× loading buffer (glycerol and bromphenol blue in TAE buffer) were added and 10 μl of these solutions were analyzed on a 1% agarose gel in the presence of ethidium bromide.
The ability of ppTG1 peptide to complex DNA was analyzed by gel retardation assays. […] After 20 minutes incubation at room temperature, loading buffer was added and 10 μl of the resulting solution were analyzed on a 1% agarose gel.
ppTG1 derivatives as they are indicated in Materials and Methods, were tested for their capacity to bind plasmid DNA by gel retardation assays.

RENCA tumors = assay: In vivo gene transfer after intratumoral injection, luciferase activity in tumors; design: species or system B6D2 mice; conditions: 10 μg pTG11236, peptide at pH 8, intratumoral, day 1
Experimental: 4×10^5 RENCA cells (murine kidney tumor cells, ATCC) were injected subcutaneously into B6D2 mice to provoke tumor growth. When tumors reached a size of approximatively 30 mm^3, 30 μl of a 5% glucose solution, containing the luciferase expression plasmid DNA pTG11236 in presence or absence of peptide of the present invention were injected into the tumors. Mice were sacrificed at day 1 after injection, tumors were recovered and homogeinized. Luciferase activity was analyzed and expressed as RLU/g tumor.
The peptide ppTG21 was tested for its capacity to enhance plasmid transfer after intratumoral injection in RENCA tumor-bearing mice. Ten μg of the luciferase expression plasmid pTG11236 were mixed with increasing amounts (i.e. 0.1, 0.6, 3 or 15 micrograms) of ppTG21 at pH 8 (10 mM Tris pH 8). […] In paralell, experiments have been conducted in identical conditions by administering the same plasmid DNA in the presence of increasing amounts (i.e. 0.1%, 0.2%, 0.4% and 0.6 %) of HPC (Hexadecyl-phospho-choline). Plasmid DNA alone, or plasmid DNA in the presence of HPC or ppTG21 were intratumorally injected in similar conditions. Next day, luciferase activities in the tumors was determined (RLU/g tumour).

[2] = Liposome leakage assay, POPC/cholesterol 3:2 liposomes; type: biochemical; conditions: POPC/chol liposomes, pH 5
[3] = pH 5 versus pH 7; cited from earlier work
[4] = 50 ng pTG11236 complexed with 0.9 μg ppTG1 and 0.1 μg JTS1, final charge ratio 5

Substance	liposome leakage activity / calcein release [1]	transfection / gene transfer efficiency in vitro (HeLa cells; HeLa cells)	further results
GIFRAIIRIIRSIWRIIIRA	slightly reduced	diminished; also recorded: reduced	
WEAKLAKALAKALAKHLAKALAKALKACEA [reference compound]			liposome leakage activity ([1]; POPC/Chol (3:2) liposomes, pH not separated (compared at pH 5 and pH 7)): no activity; also recorded: could not liberate calcein; gene transfer at optimal charge ratio lower than for ppTG1 (HeLa cells; 50 ng pTG11236): 200 fold; gene transfer at optimal charge ratio lower than for ppTG1 (HeLa cells; 500 ng pTG11236): 4 fold; best (optimal) charge ratio for gene transfer (HeLa cells; HeLa cells, 50 ng and 500 ng pTG11236): 7; gene transfer efficiency in the lung (B6SJL mice, lungs): undetectable; also recorded: inefficient
GLFHALLHLLHSLWHLLLHA	comparable to ppTG1	strongly reduced	binding to plasmid DNA (plasmid pTG11236; pH 5): binds plasmid DNA; also recorded: can bind DNA; binding to plasmid DNA (plasmid pTG11236; pH 8): not capable to bind to plasmid DNA; gene expression (luciferase) in tumors after co-injection with plasmid (RENCA tumors): increase of apparent gene expression; also recorded: dramatic improvement of the nucleic acid transfer efficiency
GLFRRLLRLLRRLWRLLLRA	comparable to ppTG1 and ppTG20; also recorded: slightly reduced	comparable to ppTG1 and ppTG20; also recorded: did not change	
CGLFKALLKLLKSLWKLLLKA	slightly reduced		
GIFKAIIKIIKSIWKIIIKA		diminished; also recorded: reduced	
CGLFKALLKLLKSLWKLLLKAC (cysteine pairing not given here)	slightly reduced		
GLFKKLLKLLKKLWKLLLKA	comparable to ppTG1 and ppTG20; also recorded: slightly reduced	comparable to ppTG1 and ppTG20; also recorded: did not change	
GLFEALLELLESLWELLLEACCYKAKKKKKKKKWKKKKQS (cysteine pairing not given here) [reference compound]	impeded in calcein release		transfection (HeLa cells; 0.05 μg plasmid DNA): remains low; retardation of pTG11236 (plasmid pTG11236; 3 μg (0.6 nmol) peptide, 3 μg pTG11236): > 95%; liposome leakage activity / calcein release [2]: low level release; gene transfer efficiency in the lung (B6SJL mice, lungs): low
GLFRALLRLLRSLWRLLLRA [ppTG20]			toxicity (B6SJL mice, lungs): less toxic than ppTG1
GLFEALLELLESLWELLLEA [reference compound]	reduced		lysing of calcein containing phosphatidylcholine liposomes [3]: more efficiently than at a pH 7; increase of luciferase activity versus best formulation of ppTG1/pcTG90/DOPE (HeLa cells; [4]): about 10 factor; increase of luciferase activity versus pcTG90/DOPE alone (HeLa cells; [4]): about 1000 factor; liposome leakage activity / calcein release [2]: high lysis activity
GVFRAVVRVVRSVWRVVVRA	diminished; also recorded: significantly reduced	diminished	
Gly-Leu-Phe-Arg-Ala-Leu-Leu-Arg-Leu-Leu-Arg-Ser-Leu-Trp-Arg-Leu-Leu-Leu-Arg-Ala (G[dL][dF][dR][dA][dL][dL][dR][dL][dL][dR][dS][dL][dW][dR][dL][dL][dL][dR][dA]) [ppTG20-D]	retained	retained; also recorded: as efficient as ppTG1	gene transfer efficiency in the lung (B6SJL mice, lungs): even higher than with ppTG1; also recorded: even more efficient than ppTG20
GVFKAVVKVVKSVWKVVVKA	diminished; also recorded: significantly reduced	diminished	gene transfer efficiency in the lung (B6SJL mice, lungs): drastically reduced; also recorded: did not lead to detectable reporter gene expression
